Tests used:
[1] = system: HCT116 cells and MKN45 cells; experiment: Test C: measurement of cell proliferation by 14C-thymidine pulse; assay type: cell-based; conditions: 14C-thymidine incorporation, 96 h of treatment; cell line not given
Experimental: The cells are seeded into Cytostar 96-well plates in 180 μl for 4 hours at 37° C. and 5% CO2: HCT116 cells at a rate of 2500 cells per well in DMEM medium+10% foetal calf serum+1% L-glutamine and MKN45 cells at a rate of 7500 cells per well in RPMI medium+10% foetal calf serum+1% L-glutamine. After these 4 hours of incubation, the products are added in 10 μl as a 20-fold concentrated solution according to the dilution method mentioned for the ELISA. The products are tested at 10 concentrations in duplicate from 10 000 nM to 0.3 nM with an increment of 3.
After treatment for 72 h, add 10 μl of ^14C-thymidine at 10 μCi/ml to obtain 0.1 μCi per well. The ^14C-thymidine incorporation is measured on a Micro-Beta machine (Perkin-Elmer) after 24 hours of pulse and 96 h of treatment.
All the steps of the assay are automated on BIOMEK 2000 or TECAN stations.

MET [2] = target: T1, MET (Homo sapiens, UniProt P08581); experiment: Test A: HTRF MET assay in 96-well format; assay type: biochemical; parameters: The His-Tev-MET (956-1390) recombinant DNA in pFastBac (Invitrogen) is transfected into insect cells; His tag (N, cleaved yes); Tev cleavage site (N, cleaved yes); made in house; host or cells: SF21 insect cells (baculovirus, pFastBac); conditions: MET 5 nM, 10 μM ATP
Experimental: The His-Tev-MET (956-1390) recombinant DNA in pFastBac (Invitrogen) is transfected into insect cells, and after several viral amplification steps, the final baculovirus stock is tested for the expression of the protein of interest.
After infection for 72 h at 27° C. with the recombinant virus, the SF21 cell cultures are harvested by centrifugation and the cell pellets are stored at −80° C.
The cell pellets are resuspended in lysis buffer (buffer A [50 mM HEPES, pH 7.5, 250 mM NaCl, 10% glycerol, 1 mM TECP]; +cocktail of protease inhibitors, Roche Diagnostics, without EDTA, ref 1873580), stirred at 4° C. until the mixture is homogeneous and then lyzed mechanically using a “Dounce” type apparatus.
After centrifugation, the lysis supernatant is incubated for 2 h at 4° C. with nickel chelate resin (His-Trap 6 Fast Flow™, GE HealthCare). After washing with 20 volumes of buffer A, the suspension is packed into a column, and the proteins are eluted with a gradient of buffer B ([…]+290 mM imidazole).
The fractions containing the protein of interest for the purpose of electrophoretic analysis (SDS PAGE) are combined, concentrated by ultrafiltration (10 kDa cut-off) and injected onto an exclusion chromatography column (Superdex™ 200, GE HealthCare) equilibrated in buffer A.
After enzymatic cleavage of the histidine tag, the protein is reinjected onto a new IMAC nickel chelate chromatography column (His-Trap 6 Fast Flow™, GE HealthCare) equilibrated in buffer A. The fractions eluted with a gradient of buffer B and containing the protein of interest after electrophoresis (SDS PAGE) are finally combined and conserved at −80° C.
For the production of autophosphorylated protein, the previous fractions are incubated for 1 h at ambient temperature after the addition of 2 mM ATP, 2 mM MgCl2, and 4 mM Na3VO4. After the reaction has been stopped with 5 mM of EDTA, the reaction mixture is injected onto a HiPrep desalifying column (GE HealthCare) preequilibrated in buffer A+4 mM Na3VO4, and the fractions containing the protein of interest (SDS PAGE analysis) are combined and stored at −80° C. The degree of phosphorylation is verified by mass spectrometry (LC-MS) and by peptide mapping.
MET at a final concentration of 5 nM is incubated in a final volume of 50 μl of enzymatic reaction in the presence of the test molecule (for a final concentration range of from 0.17 nM to 10 μM, 3% DMSO final concentration) in 10 mM MOPS buffer, pH 7.4, 1 mM DTT, 0.01% Tween 20. The reaction is initiated with the substrate solution to obtain final concentrations of 1 μg/ml poly-(GAT), 10 μM ATP and 5 mM MgCl2. After incubation for 10 min at ambient temperature, the reaction is stopped with a 30 μl mix so as to obtain a final solution of 50 mM Hepes pH 7.5, 500 mM potassium fluoride, 0.1% BSA and 133 mM EDTA in the presence of 80 ng of streptavidin 61SAXLB Cis-Bio Int. and 18 ng of anti-phosphotyrosine Mab PT66-Europium Cryptate per well. After incubation for 2 hours at ambient temperature, the reading is taken at 2 wavelengths, 620 nm and 665 nm, on a reader for the TRACE/HTRF technique and the % inhibition is calculated from the 665/620 ratios.
Target sequence in this assay (P08581 956-1390): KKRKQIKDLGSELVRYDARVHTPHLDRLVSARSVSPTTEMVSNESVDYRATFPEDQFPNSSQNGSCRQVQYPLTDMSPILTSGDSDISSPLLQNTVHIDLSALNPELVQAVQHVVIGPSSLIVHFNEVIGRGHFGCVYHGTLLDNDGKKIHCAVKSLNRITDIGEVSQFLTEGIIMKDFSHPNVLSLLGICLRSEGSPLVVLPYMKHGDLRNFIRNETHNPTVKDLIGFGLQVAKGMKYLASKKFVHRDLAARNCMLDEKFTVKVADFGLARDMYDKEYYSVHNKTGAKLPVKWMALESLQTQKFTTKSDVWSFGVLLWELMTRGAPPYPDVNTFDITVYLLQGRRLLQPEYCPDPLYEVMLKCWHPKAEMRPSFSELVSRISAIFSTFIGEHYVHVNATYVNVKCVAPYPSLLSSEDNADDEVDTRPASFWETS

MET [3] = target: T1, MET; experiment: Test B: inhibition of the autophosphorylation of MET, ELISA technique (pppY1230, 1234, 1235) on MKN45 cell lysates; assay type: cell-based; parameters: endogenous in cells; host or cells: MKN45 cells; conditions: MKN45 cells, 1 h treatment, phosphoMET ELISA
Experimental: a) Cell lysates: Seed MKN45 cells into 96-well plates (Cell coat BD polylysine) at 20 000 cells/well in 200 μl in RPMI medium+10% FCS+1% L-glutamine. Leave to adhere for 24 hours in an incubator.
The cells are treated the day after seeding with the products at 6 concentrations in duplicate for 1 h. At least 3 control wells are treated with the same final amount of DMSO.
Product dilution: Stock at 10 mM in pure DMSO—range from 10 mM to 30 μM with an increment of 3 in pure DMSO—intermediate 1/50 dilutions in culture medium and then removal of 10 μl added directly to the cells (200 μl): final range of 10 000 to 30 nM.
At the end of the incubation, carefully remove the supernatant and rinse with 200 μl of PBS. Next, place 100 μl of lysis buffer directly in the wells on ice and incubate at 4° C. for 30 minutes. Lysis buffer: 10 mM Tris HCl, pH7.4, 100 mM NaCl, 1 mM EDTA, 1 mM EGTA, 1% Triton X-100, 10% glycerol, 0.1% SDS, 0.5% deoxycholate, 20 mM NaF, 2 mM Na3VO4, 1 mM PMSF and cocktail of antiproteases.
The 100 μl of lysates are transferred into a V-bottomed polypropylene plate and the ELISA is performed immediately, or the plate is frozen at −80° C.
Into each well of the kit plate, add 70 μl of kit dilution buffer+30 μL of cell lysate or 30 μl of lysis buffer for the blanks. Incubate for 2 h with gentle agitation at ambient temperature.
Rinse the wells 4 times with 400 μl of kit washing buffer. Incubate with 100 μl of anti-phospho MET antibody for 1 hour at ambient temperature.
Rinse the wells 4 times with 400 μl of kit washing buffer. Incubate with 100 μl of anti-rabbit HRP antibody for 30 minutes at ambient temperature (except for the wells of chromogen alone).
Rinse the wells 4 times with 400 μl of kit washing buffer. Introduce 100 μL of chromogen and incubate for 30 minutes in the dark at ambient temperature.
Stop the reaction with 100 μl of stop solution. Read without delay at […], 0.1 second on Wallac Victor plate reader.
Target sequence in this assay (P08581 25-1390): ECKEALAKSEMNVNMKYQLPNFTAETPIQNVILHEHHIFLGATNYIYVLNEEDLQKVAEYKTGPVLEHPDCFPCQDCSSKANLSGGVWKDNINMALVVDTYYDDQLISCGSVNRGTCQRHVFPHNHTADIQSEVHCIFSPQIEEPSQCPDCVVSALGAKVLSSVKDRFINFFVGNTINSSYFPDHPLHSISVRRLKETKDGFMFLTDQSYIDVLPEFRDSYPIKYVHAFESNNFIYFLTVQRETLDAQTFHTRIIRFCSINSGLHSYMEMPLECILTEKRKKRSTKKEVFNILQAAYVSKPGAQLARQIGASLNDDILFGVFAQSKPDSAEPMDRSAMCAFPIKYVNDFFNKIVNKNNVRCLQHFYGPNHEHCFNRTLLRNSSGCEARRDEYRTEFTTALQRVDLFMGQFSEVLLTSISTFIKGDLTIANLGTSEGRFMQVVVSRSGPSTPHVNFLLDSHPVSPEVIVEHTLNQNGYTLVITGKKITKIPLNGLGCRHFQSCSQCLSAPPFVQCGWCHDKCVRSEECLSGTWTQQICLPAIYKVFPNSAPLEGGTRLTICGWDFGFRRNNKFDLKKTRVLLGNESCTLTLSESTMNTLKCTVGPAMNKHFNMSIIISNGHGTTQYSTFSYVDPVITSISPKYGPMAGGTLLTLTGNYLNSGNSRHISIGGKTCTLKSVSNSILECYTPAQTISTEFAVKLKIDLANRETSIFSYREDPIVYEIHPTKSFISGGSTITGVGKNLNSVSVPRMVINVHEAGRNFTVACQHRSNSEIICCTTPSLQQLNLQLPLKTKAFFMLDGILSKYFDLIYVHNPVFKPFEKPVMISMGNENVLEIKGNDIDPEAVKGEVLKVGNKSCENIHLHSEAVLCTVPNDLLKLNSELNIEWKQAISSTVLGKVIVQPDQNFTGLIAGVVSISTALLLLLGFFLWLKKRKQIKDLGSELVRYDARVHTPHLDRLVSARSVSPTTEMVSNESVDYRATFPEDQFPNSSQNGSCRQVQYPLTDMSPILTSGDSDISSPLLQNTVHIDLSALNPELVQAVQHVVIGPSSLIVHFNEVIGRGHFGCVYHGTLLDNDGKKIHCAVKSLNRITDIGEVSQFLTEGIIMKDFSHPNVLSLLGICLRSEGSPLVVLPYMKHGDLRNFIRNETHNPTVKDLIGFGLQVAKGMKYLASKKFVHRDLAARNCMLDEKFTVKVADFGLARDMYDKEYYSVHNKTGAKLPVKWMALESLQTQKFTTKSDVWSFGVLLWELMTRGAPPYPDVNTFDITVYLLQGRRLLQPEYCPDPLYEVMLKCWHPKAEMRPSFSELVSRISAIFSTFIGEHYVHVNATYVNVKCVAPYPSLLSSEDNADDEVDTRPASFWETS

| SMILES | IC50 [1] [nM] | IC50 (MET [2]) [nM] | IC50 (MET [3]) [nM] |
| --- | --- | --- | --- |
| CC(=O)Nc1nc2ccc(Sc3nnc4ccc(NC5CCOCC5)nn34)cc2s1 [Example 2, N-(6-{[6-(Tetrahydro-2H-pyran-4-ylamino)[1,2,4]triazolo[4,3-b]pyridazin-3-yl]sulphanyl}-1,3-benzothiazol-2-yl)acetamide] | < 1000 | < 100 | < 100 |
| CN(C)CC(=O)Nc1nc2ccc(Sc3nnc4ccc(NC5CCOCC5)nn34)cc2s1 [Example 6, N^2,N^2-dimethyl-N-(6-{[6-(tetrahydro-2H-pyran-4-ylamino)[1,2,4]triazolo-[4,3-b]pyridazin-3-yl]sulphanyl}-1,3-benzothiazol-2-yl)glycinamide] | < 1000 | < 100 | < 100 |
| O=C(NCCN1CCOCC1)Nc1nc2ccc(Sc3nnc4ccc(NC5CCOCC5)nn34)cc2s1 [Example 4, 1-[2-(Morpholin-4-yl)ethyl]-3-(6-{[6-(tetrahydro-2H-pyran-4-ylamino)-[1,2,4]triazolo[4,3-b]pyridazin-3-yl]sulphanyl}-1,3-benzothiazol-2-yl)urea] | < 1000 | < 100 | < 100 |

Further lines, results first:

| IC50 [1] [nM] | IC50 (MET [2]) [nM] | IC50 (MET [3]) [nM] | SMILES |
| --- | --- | --- | --- |
| < 1000 | < 100 | – | Nc1nc2ccc(Sc3nnc4ccc(NC5CCOCC5)nn34)cc2s1 [Example 1, 3-[(2-Amino-1,3-benzothiazol-6-yl)sulphanyl]-N-(tetrahydro-2H-pyran-4-yl)[1,2,4]triazolo[4,3-b]pyridazin-6-amine] |
| < 1000 | < 100 | < 100 | O=C(Nc1nc2ccc(Sc3nnc4ccc(NC5CCOCC5)nn34)cc2s1)C1CC1 [Example 3, N-(6-{[6-(Tetrahydro-2H-pyran-4-ylamino)[1,2,4]triazolo[4,3-b]pyridazin-3-yl]sulphanyl}-1,3-benzothiazol-2-yl)cyclopropanecarboxamide] |
| < 1000 | < 100 | < 100 | COCCC(=O)Nc1nc2ccc(Sc3nnc4ccc(NC5CCOCC5)nn34)cc2s1 [Example 5, 3-Methoxy-N-(6-{[6-(tetrahydro-2H-pyran-4-ylamino)[1,2,4]triazolo-[4,3-b]pyridazin-3-yl]sulphanyl}-1,3-benzothiazol-2-yl)propanamide] |
